From patent US8916599B2, “1H-benz imidazole-5-carboxamides as anti-inflammatory agents” (Orexo AB, priority 2008, dated 2014) come the findings set out here.

A word on the inhibition: it is the relative decrease from the control value, in per cent.

The first experiment deals with T1, recombinant human mPGES-1 (Homo sapiens, UniProt O14684).
T1 construct: made in house; host or cells: Rosetta E. coli (microsomal/membrane fraction)
T1 sequence (O14684 1-152): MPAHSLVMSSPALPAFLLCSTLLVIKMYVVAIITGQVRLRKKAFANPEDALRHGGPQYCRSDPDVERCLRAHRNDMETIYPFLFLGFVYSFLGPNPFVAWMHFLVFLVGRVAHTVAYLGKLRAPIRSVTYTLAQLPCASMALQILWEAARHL
Description: mPGES-1 inhibition test (microsomes, PGH2 substrate, HTRF detection of PGE2). Conditions: inhibition of mPGES-1 at 1 μM (marked in cell). The experiment is classed as biochemical. Summed up:
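E. coli microsomal enzyme, 0.1 M KPi pH 7.4 + 2.5 mM GSH; cpd (DMSO) 25 min RT; PGH2 1 min; acidic FeCl2 stop. Dilute 750-fold, HTRF (d2/Eu-cryptate anti-PGE2, overnight 4 °C), 665/620 ratio vs PGE2 standard curve.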
Background: Time-resolved FRET reads energy transfer from a long-lived donor to a nearby acceptor.
On to `O=C(Nc1cccc(C(F)(F)F)c1)c1ccc2[nH]c(Nc3c(Cl)cccc3Cl)nc2c1` [Example 283, 2-(2,6-Dichloro-phenylamino)-1H-benzimidazole-5-carboxylic acid (3-trifluoromethyl-phenyl)-amide], for which the inhibition at 1 µM was 100%.
The same measure, in the same setting: the figure for `Cc1ccc(Cl)c(Nc2nc3cc(C(=O)NC4CCCCC4)c(F)cc3n2C)c1F` [Example 623, 2-(6-Chloro-2-fluoro-3-methyl-phenylamino)-6-fluoro-N-cyclohexyl-1-methyl-1H-benzimidazole-5-carboxamide] is 93%; for `Cc1ccc(Cl)c(Nc2nc3cc(C(=O)N[C@H]4CC[C@H](C(F)(F)F)CC4)c(F)cc3[nH]2)c1F` [Example 653, 2-(6-Chloro-2-fluoro-3-methyl-phenylamino)-N-(trans-4-trifluoromethyl-cyclohex-1-yl)-6-fluoro-1H-benzimidazole-5-carboxamide] it is 92%.
As to `O=C(Nc1ccc(Cl)c(F)c1)c1ccc2[nH]c(Nc3c(Cl)cccc3Cl)nc2c1` [Example 67, 2-(2,6-Dichloro-phenylamino)-1H-benzimidazole-5-carboxylic acid (4-chloro-3-fluoro-phenyl)-amide], the inhibition at 1 µM is 100%.
Still for that read-out and setting: the figure for `COc1cc2c(cc1C(=O)Nc1ccc(Br)cc1)nc(Nc1cc(F)ccc1C(F)(F)F)n2C` [Example 642, 2-(5-Fluoro-2-trifluoromethyl-phenylamino)-N-(4-bromphenyl)-6-methoxy-1-methyl-1H-benzimidazol-5-carboxamide] is 100%.

The same experiment, now with this note: inhibition of mPGES-1 at 10 μM.
For the compound `Cn1c(Nc2c(Cl)cc(F)cc2Cl)nc2cc(C(=O)NC3CCC(C)(C)CC3)ccc21` [Example 420, 2-(2,6-Dichloro-4-fluorophenylamino)-N-(4,4-dimethylcyclohexyl)-1-methyl-1H-benzimidazole-5-carboxamide], the inhibition at 10 µM was found to be 100%.
With `CS(=O)(=O)NCCn1c(Nc2c(Cl)cccc2Cl)nc2cc(C(=O)Nc3cc(Cl)ccn3)ccc21` [Example 205, 2-(2,6-Dichloro-phenylamino)-1-(2-methanesulfonylamino-ethyl)-1H-benzimidazole-5-carboxylic acid (4-chloro-pyridin-2-yl)-amide], the inhibition at 10 µM worked out at 97%.
As to `C[C@@H]1CCC[C@@H](NC(=O)c2cc3nc(Nc4c(Cl)cccc4Cl)n(C)c3cc2F)C1` [Example 442, 2-(2,6-Dichlorophenylamino)-6-fluoro-1-methyl-N-((1R,3R)-3-methylcyclohexyl)-1H-benzimidazole-5-carboxamide], the inhibition at 10 µM is 99%.
On the same count and under the same terms, as for `Cn1c(Nc2c(Cl)cccc2Cl)nc2cc(C(=O)NCC3CCCC3)ccc21` [Example 243, 2-(2,6-Dichloro-phenylamino)-1-methyl-1H-benzimidazole-5-carboxylic acid cyclopentylmethyl-amide], the figure is 93%.
For the compound `O=C(NC1CCC(F)(F)CC1)c1ccc2[nH]c(Nc3c(Cl)cccc3Cl)nc2c1` [Example 225, 2-(2,6-Dichloro-phenylamino)-1H-benzimidazole-5-carboxylic acid (4,4-difluoro-cyclohexyl)-amide], the inhibition at 10 µM was 80%.
On the same count and under the same terms, the figure for `Cn1c(Nc2c(Cl)cccc2Cl)nc2cc(C(=O)Nc3cc(C(F)(F)F)ccn3)c(F)cc21` [Example 130, 2-(2,6-Dichloro-phenylamino)-6-fluoro-1-methyl-1H-benzimidazole-5-carboxylic acid (4-trifluoromethyl-pyridin-2-yl)-amide] is 93%.
Same read-out and setting: the figure for `COc1cc2[nH]c(Nc3c(Cl)ccc(Cl)c3F)nc2cc1C(=O)NC1CCCCC1` [Example 612, 2-(3,6-Dichloro-2-fluoro-phenylamino)-N-cyclohexyl-6-methoxy-1H-benzimidazole-5-carboxamide] is 99%; for `Cc1cccnc1CNC(=O)c1cc2nc(Nc3c(Cl)cccc3Cl)n(C)c2cc1F` [Example 510, 2-(2,6-Dichlorophenylamino)-6-fluoro-1-methyl-N-((3-methylpyridin-2-yl)methyl)-1H-benzimidazole-5-carboxamide] it is 99%.
As to `Cc1ccccc1NC(=O)c1ccc2[nH]c(Nc3c(Cl)cccc3Cl)nc2c1` [Example 3, 2-(2,6-Dichloro-phenylamino)-1H-benzimidazole-5-carboxylic acid o-tolylamide], the inhibition at 10 µM stood at 95%.
On the same count and under the same terms, as for `O=C(Nc1ccc(C(F)(F)F)cn1)c1ccc2[nH]c(Nc3c(Cl)cccc3Cl)nc2c1` [Example 191, 2-(2,6-Dichloro-phenylamino)-1H-benzimidazole-5-carboxylic acid (5-trifluoromethyl-pyridin-2-yl)-amide], the figure is 99%; as for `CCn1c(Nc2c(Cl)cccc2Cl)nc2cc(C(=O)Nc3cc(Cl)ccn3)ccc21` [Example 277, 2-(2,6-Dichloro-phenylamino)-1-ethyl-1H-benzimidazole-5-carboxylic acid (4-chloro-pyridin-2-yl)-amide], 99%.
Still for that read-out and setting: as for `O=C(NCc1ccc(C(F)(F)F)cn1)c1ccc2[nH]c(Nc3c(Cl)cccc3Cl)nc2c1` [Example 222, 2-(2,6-Dichloro-phenylamino)-1H-benzimidazole-5-carboxylic acid (5-trifluoromethyl-pyridin-2-ylmethyl)-amide], the figure is 74%; as for `O=C(NC1CCc2ccccc2C1)c1ccc2nc(Nc3c(Cl)cccc3Cl)[nH]c2c1` (centres unmarked) [Example 146, 2-(2,6-Dichloro-phenylamino)-3H-benzimidazole-5-carboxylic acid (1,2,3,4-tetrahydro-naphthalen-2-yl)-amide], 97%.
Still for that read-out and setting: the figure for `Cc1ccc(NC(=O)c2ccc3c(c2)nc(Nc2c(Cl)cccc2Cl)n3C)nc1` [Example 327, 2-(2,6-Dichloro-phenylamino)-1-methyl-1H-benzimidazole-5-carboxylic acid (5-methyl-pyridin-2-yl)-amide] is 100%; for `O=C(Nc1ccc(Br)cc1)c1cc2[nH]c(Nc3c(Cl)cccc3Cl)nc2cc1F` [Example 144, 2-(2,6-Dichloro-phenylamino)-6-fluoro-3H-benzimidazole-5-carboxylic acid (4-bromo-phenyl)-amide] it is 97%; for `Cc1cc2[nH]c(Nc3c(Cl)cccc3Cl)nc2cc1C(=O)NC1CCC(C)(C)CC1` [Example 123, 2-(2,6-Dichloro-phenylamino)-6-methyl-1H-benzimidazol-5-carboxylic acid (4,4-dimethyl-cyclohexyl)-amide] it is 95%.
With `CCCCOc1cccc(NC(=O)c2ccc3[nH]c(Nc4c(Cl)cccc4Cl)nc3c2)n1` [Example 426, N-(6-Butoxypyridin-2-yl)-2-(2,6-dichlorophenylamino)-1H-benzimidazole-5-carboxamide], the inhibition at 10 µM worked out at 98%.
On to `O=C(Nc1ccc(Br)cc1)c1cc2nc(Nc3c(Cl)cccc3Cl)[nH]c2cc1Cl` [Example 53, 2-(2,6-Dichloro-phenylamino)-6-chloro-1H-benzimidazole-5-carboxylic acid (4-bromo-phenyl)-amide], for which the inhibition at 10 µM is 100%.
The same measure, in the same setting: the figure for `Cn1c(Nc2c(F)cccc2F)nc2cc(C(=O)Nc3ccc(Br)cc3)ccc21` [Example 173, 2-(2,6-Difluoro-phenylamino)-1-methyl-1H-benzimidazole-5-carboxylic acid (4-bromo-phenyl)-amide] is 97%; for `Cn1c(Nc2c(Cl)cccc2Cl)nc2cc(C(=O)N[C@H]3CC[C@H](C(F)(F)F)CC3)c(F)cc21` [Example 158, 2-(2,6-Dichloro-phenylamino)-6-fluoro-1-methyl-1H-benzimidazole-5-carboxylic acid (trans-4-trifluoromethyl-cyclohexyl)-amide] it is 100%.
As for `O=C(NC1CCCCC1C(F)(F)F)c1ccc2[nH]c(Nc3c(Cl)cccc3Cl)nc2c1` (centres unmarked) [Example 228, 2-(2,6-Dichloro-phenylamino)-1H-benzimidazole-5-carboxylic acid (2-trifluoromethyl-cyclohexyl)-amide], the inhibition at 10 µM came out at 86%.
On the same count and under the same terms, as for `O=C(Nc1ccc(Cl)cn1)c1ccc2[nH]c(Nc3c(Cl)cccc3Cl)nc2c1` [Example 74, 2-(2,6-Dichloro-phenylamino)-1H-benzimidazole-5-carboxylic acid (5-chloro-pyridin-2-yl)-amide], the figure is 97%; as for `CCOc1cc2[nH]c(Nc3c(Cl)ccc(Cl)c3F)nc2cc1C(=O)N[C@H]1CC[C@H](C(F)(F)F)CC1` [Example 599, 2-(3,6-Dichloro-2-fluoro-phenylamino)-6-ethoxy-N-(trans-4-trifluoromethyl-cyclohex-1-yl)-1H-benzimidazole-5-carboxamide], 92%.
Still for that read-out and setting: the figure for `O=C(Nc1cccc(Cl)n1)c1ccc2[nH]c(Nc3c(Cl)cccc3Cl)nc2c1` [Example 185, 2-(2,6-Dichloro-phenylamino)-1H-benzimidazole-5-carboxylic acid (6-chloro-pyridin-2-yl)-amide] is 98%; for `CN(C)c1ccnc(NC(=O)c2ccc3c(c2)nc(Nc2c(Cl)cccc2Cl)n3C)c1` [compound 559] it is 85%.
Same read-out and setting: as for `Cn1c(Nc2c(Cl)cccc2Cl)nc2cc(C(=O)NC3CCc4ccccc4C3)c(F)cc21` (centres unmarked) [Example 162, 2-(2,6-Dichloro-phenylamino)-6-fluoro-1-methyl-1H-benzimidazole-5-carboxylic acid (1,2,3,4-tetrahydro-naphthalen-2-yl)-amide], the figure is 100%.
On to `Cn1c(Nc2c(Cl)cccc2Cl)nc2cc(C(=O)NCCC3CCC3)c(F)cc21` [Example 397, N-(2-Cyclobutylethyl)-2-(2,6-dichlorophenylamino)-6-fluoro-1-methyl-1H-benzimidazole-5-carboxamide], for which the inhibition at 10 µM is 99%.
